We go through 13 compounds from patent US12441768B2, “Compositions and methods for treating endometriosis” (EndoMet Biosciences, Inc., priority 2018, dated 2025).

Where a SMILES comes first, the peptide text is derived from it. A value given as a limit tells only on which side of the number the result lay.

In one series the target is T1, β-catenin (Homo sapiens, UniProt P35222).
T1 sequence (P35222 1-781): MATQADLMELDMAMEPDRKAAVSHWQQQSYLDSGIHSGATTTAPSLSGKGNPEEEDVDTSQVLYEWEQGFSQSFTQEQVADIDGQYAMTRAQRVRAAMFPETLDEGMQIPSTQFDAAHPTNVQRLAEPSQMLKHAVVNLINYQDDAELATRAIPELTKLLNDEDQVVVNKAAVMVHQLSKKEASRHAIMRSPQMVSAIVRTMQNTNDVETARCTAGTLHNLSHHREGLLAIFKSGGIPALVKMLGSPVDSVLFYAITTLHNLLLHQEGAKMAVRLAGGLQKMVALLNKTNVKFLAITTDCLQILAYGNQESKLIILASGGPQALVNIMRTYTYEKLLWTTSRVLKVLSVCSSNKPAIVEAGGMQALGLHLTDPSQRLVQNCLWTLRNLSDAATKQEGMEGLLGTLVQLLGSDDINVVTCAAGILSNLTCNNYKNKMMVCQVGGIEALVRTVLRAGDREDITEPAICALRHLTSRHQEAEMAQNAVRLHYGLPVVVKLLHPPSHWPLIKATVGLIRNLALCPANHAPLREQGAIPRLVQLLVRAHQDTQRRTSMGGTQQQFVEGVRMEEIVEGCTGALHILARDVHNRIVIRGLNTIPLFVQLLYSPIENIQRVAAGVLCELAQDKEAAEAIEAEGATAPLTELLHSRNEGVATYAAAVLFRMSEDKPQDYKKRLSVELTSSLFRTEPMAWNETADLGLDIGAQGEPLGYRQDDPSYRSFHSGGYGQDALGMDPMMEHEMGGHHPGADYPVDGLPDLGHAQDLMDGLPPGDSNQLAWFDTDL
The series can be described thus: KD50 measurement using competitive fluorescence polarization (FP) with labelled TCF4. The series is classed as binding. The note with it: fluorescence polarization, β-catenin; for Kd: read-out: β-Cat FP KD. The essentials: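 Tracer: labelled TCF4, 5 nM; protein 100 nM; RT incubation. Competitor dilution series 10 nM–30 uM. FP read ex 470 / em 520 nm. n = 3.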

The conditions of series [1]: % Viability non-Wnt responsive cells.
Series [2] deals with Wnt-responsive promoter (TCF/LEF). The series can be described thus: Wnt-dependent luciferase reporter assay. Format: cell-based, murine. The essentials:
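EC50 (uM) derived from inhibition of luminescence in Wnt3a-stimulated murine 3T3 cells expressing luciferase under a TCF/LEF promoter, with peptides added across a concentration range and vehicle as control.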

On to `CC[C@H](C)[C@H](NC(=O)[C@H](CC(C)C)NC(=O)[C@@H](NC(=O)[C@H](Cc1c[nH]c2ccccc12)NC(=O)[C@@H](N)CCSC)[C@@H](C)CC)C(=O)N[C@@H](CS)C(=O)N[C@@H](Cc1ccccc1)C(=O)N[C@@H](Cc1c[nH]c2ccccc12)C(=O)NCC(=O)O` [compound 116] (H-MWILICFWG-OH), for which, on β-catenin, the “β-Cat FP Hill slope” value is listed as 0.72 and the Kd was 0.4 to 1 µM. Also, the viability in series [1] amounted to 123%. The EC50 in series [2] is less than 7.5 µM.

For the compound `CC[C@H](C)[C@H](NC(=O)[C@H](CC(C)C)NC(=O)[C@H](Cc1ccccc1)NC(=O)[C@H](Cc1c[nH]c2ccccc12)NC(=O)[C@H](CCSC)NC(=O)[C@H](CCCNC(=N)N)NC(=O)[C@H](CO)NC(=O)[C@@H](N)CCSC)C(=O)N[C@@H](CO)C(=O)N[C@@H](Cc1ccccc1)C(=O)N[C@@H](Cc1c[nH]c2ccccc12)C(=O)N[C@@H](CCC(=O)O)C(=O)NCC(=O)O` [compound 57] (H-MSRMWFLISFWEG-OH), at β-catenin, the “β-Cat FP Hill slope” value is recorded as 0.7 and the Kd fell in the range of 1 to 10 µM. In series [1], the viability is 104%. Further, in series [2], the EC50 is less than 7.5 µM.

`CC[C@H](C)[C@@H]1NC(=O)[C@H](CC(C)C)NC(=O)[C@H](Cc2ccccc2)NC(=O)[C@H](Cc2c[nH]c3ccccc23)NC(=O)[C@H](CCSC)NC(=O)CCCNC(=O)C[C@@H](C(=O)O)NC(=O)[C@H](Cc2c[nH]c3ccccc23)NC(=O)[C@H](Cc2ccccc2)NC(=O)[C@H](CS)NC1=O` [compound 147] (HELM PEPTIDE1{[O=C(CCCN[*:1])[*:2]].M.W.F.L.I.C.F.W.D}$PEPTIDE1,PEPTIDE1,1:R1-10:R3$$$V2.0): at β-catenin, the Kd was greater than 30 µM. For the same compound, in series [1], the viability worked out at 105%. Further, the EC50 in series [2] was greater than 30 µM.

On to `CC[C@H](C)[C@@H]1NC(=O)[C@H](CC(C)C)NC(=O)[C@H](Cc2ccccc2)NC(=O)[C@H](Cc2c[nH]c3ccccc23)NC(=O)[C@@H](N)CCCCNC(=O)CC[C@@H](C(=O)O)NC(=O)[C@H](Cc2c[nH]c3ccccc23)NC(=O)[C@H](Cc2ccccc2)NC(=O)[C@H](CS)NC1=O` [compound 179] (HELM PEPTIDE1{K.W.F.L.I.C.F.W.E}$PEPTIDE1,PEPTIDE1,1:R3-9:R3$$$V2.0), for which, on β-catenin, the “β-Cat FP Hill slope” value was determined as 1.01 and the Kd fell in the range of 1 to 10 µM. In addition, the viability in series [1] came out at 90.9%. Moreover, the EC50 in series [2] was less than 7.5 µM.

Turning to `CC[C@H](C)[C@H](NC(=O)[C@H](CC(C)C)NC(=O)[C@H](Cc1ccccc1)NC(=O)[C@H](Cc1c[nH]c2ccccc12)NC(=O)[C@H](CCSC)NC(=O)[C@H](CCCNC(=N)N)NC(=O)[C@H](CO)NC(=O)[C@@H](N)CCSC)C(=O)N[C@@H](CO)C(=O)N[C@@H](CO)C(=O)N[C@@H](Cc1c[nH]c2ccccc12)C(=O)O` [compound 99] (H-MSRMWFLISSW-OH), at β-catenin, the “β-Cat FP Hill slope” value was 0.7 and the Kd lay within 1 to 10 µM. The viability in series [1] was 97.3%. The same compound displayed an EC50 in series [2] of 22.5 to 30 µM.

Turning to `CC[C@H](C)[C@H](NC(=O)[C@H](CC(C)C)NC(=O)[C@@H](NC(=O)[C@H](Cc1c[nH]c2ccccc12)NC(=O)[C@H](CCSC)NCc1ccccc1)[C@@H](C)CC)C(=O)N[C@@H](CO)C(=O)N[C@@H](Cc1ccccc1)C(=O)N[C@@H](Cc1c[nH]c2ccccc12)C(=O)NCC(=O)O` [compound 223] (HELM PEPTIDE1{[CSCC[C@H](NCc1ccccc1)C(=O)[*:2]].W.I.L.I.S.F.W.G}$$$$V2.0), the “β-Cat FP Hill slope” value on β-catenin stood at 0.7. The viability in series [1] amounted to 101%. For the same compound, the concentration for a half-maximal effect (EC50) in series [2] is less than 7.5 µM.

For the compound `CC[C@H](C)[C@H](NC(=O)[C@H](CC(C)C)NC(=O)[C@H](Cc1ccccc1)NC(=O)[C@H](Cc1c[nH]c2ccccc12)NC(=O)[C@H](CCCCN)NC(=O)[C@H](CCCNC(=N)N)NC(=O)[C@H](CO)NC(=O)[C@@H](N)CCCCN)C(=O)N[C@@H](CO)C(=O)N[C@@H](Cc1ccccc1)C(=O)N[C@@H](Cc1c[nH]c2ccccc12)C(N)=O` [compound 93] (H-KSRKWFLISFW-NH2), on β-catenin, the dissociation constant Kd was greater than 30 µM. For the same compound, the viability in series [1] was determined as 94%. The same compound had an EC50 in series [2] greater than 30 µM.

As for `CC[C@H](C)[C@H](NC(=O)[C@H](CC(C)C)NC(=O)[C@H](Cc1ccccc1)NC(=O)[C@H](Cc1c[nH]c2ccccc12)NC(=O)[C@H](CCSC)NC(=O)[C@H](CCCNC(=N)N)NC(=O)[C@H](CO)NC(=O)[C@@H](N)CCSC)C(=O)N[C@@H](CO)C(=O)N[C@@H](Cc1ccccc1)C(=O)N[C@@H](Cc1c[nH]c2ccccc12)C(N)=O` [compound 72] (H-MSRMWFLISFW-NH2), the Kd at β-catenin was greater than 30 µM. Moreover, the viability in series [1] was 88.6%. The compound also had a concentration giving a half-maximal response (EC50) in series [2] greater than 30 µM.

For `CC[C@H](C)[C@H](NC(=O)[C@H](CC(C)C)NC(=O)[C@H](Cc1ccccc1)NC(=O)[C@H](Cc1c[nH]c2ccccc12)NC)C(=O)N[C@@H](CO)C(=O)N[C@@H](Cc1ccccc1)C(=O)N[C@@H](Cc1c[nH]c2ccccc12)C(=O)O` [compound 111] (HELM PEPTIDE1{[meW].F.L.I.S.F.W}$$$$V2.0), on β-catenin, the “β-Cat FP Hill slope” value turned out to be 2.06 and the dissociation constant Kd lay in the range of 0.4 to 1 µM. The viability in series [1] amounted to 99.8%. For the same compound, in series [2], the 50% effective concentration (EC50) is 7.5 to 15 µM.

For `CC[C@H](C)[C@H](NC(=O)[C@H](CC(C)C)NC(=O)[C@@H](NC(=O)[C@H](Cc1c[nH]c2ccccc12)NC(=O)[C@@H](N)CCSC)[C@@H](C)CC)C(=O)N[C@@H](CO)C(=O)N[C@@H](Cc1ccc(O)cc1)C(=O)N[C@@H](Cc1c[nH]c2ccccc12)C(=O)NCC(=O)O` [compound 152] (H-MWILISYWG-OH), on β-catenin, the Kd is greater than 30 µM. Further, the viability in series [1] was 114%. The EC50 in series [2] was less than 7.5 µM.

As for `CC[C@H](C)[C@H](NC(=O)[C@H](CC(C)C)NC(=O)[C@@H](NC(=O)[C@H](Cc1c[nH]c2ccccc12)NC(=O)[C@H](CCSC)NC(=O)[C@H](CCCNC(=N)N)NC(=O)[C@H](CO)NC(=O)[C@@H](N)CCSC)[C@@H](C)CC)C(=O)N[C@@H](CO)C(=O)N[C@@H](Cc1ccccc1)C(=O)N[C@@H](Cc1c[nH]c2ccccc12)C(=O)NCC(=O)O` [compound 51] (H-MSRMWILISFWG-OH), in series [1], the viability came to 98.5%. Moreover, in series [2], the EC50 lay within 7.5 to 15 µM.

For `CC[C@H](C)[C@H](NC(=O)[C@H](CC(C)C)NC(=O)[C@H](Cc1ccccc1)NC(=O)[C@H](Cc1c[nH]c2ccccc12)NC(=O)[C@H](CCSC)NC(=O)[C@H](CCCNC(=N)N)NC(=O)[C@H](CO)NC(=O)[C@@H](N)CCSC)C(=O)N[C@@H](CO)C(=O)N[C@@H](Cc1ccccc1)C(=O)N[C@@H](Cc1c[nH]c2ccccc12)C(=O)N[C@H](C(=O)NCC(=O)O)[C@@H](C)O` [compound 44] (H-MSRMWFLISFWTG-OH), in series [1], the viability was 102%. For the same compound, in series [2], the EC50 was 15 to 22.5 µM.

As for `CC[C@H](C)[C@@H]1NC(=O)[C@H](CC(C)C)NC(=O)[C@H](Cc2ccc(O)cc2)NC(=O)[C@H](Cc2c[nH]c3ccccc23)NC(=O)[C@H](CCSC)NC(=O)[C@H](CCCNC(=N)N)NC(=O)[C@H](CO)NC(=O)[C@H](CCSC)NC(=O)[C@@H](N)CCCCNC(=O)[C@H](Cc2c[nH]c3ccccc23)NC(=O)[C@H](Cc2ccccc2)NC(=O)[C@H](CO)NC1=O` [compound 31] (HELM PEPTIDE1{K.M.S.R.M.W.Y.L.I.S.F.W}$PEPTIDE1,PEPTIDE1,1:R3-12:R2$$$V2.0; bridges inferred), the viability in series [1] amounted to 89%. Moreover, in series [2], the EC50 was greater than 30 µM.
